Source: patent US20230138563A1, “METHODS FOR QUANTIFICATION OF COMPOUNDS IN CULTIVARS OF Cannabis sp” (MEDLEAF BIOTECHNOLOGIES AND GLOBAL RESEARCH AND D[…]., priority 2020, published 2023)

What was measured:
U-87 MG glioma cell = assay: single-cell microfluidic intracellular calcium bioassay (Fluo-4 fluorescence); settings: for [Ca^2+]i: single U-87 MG cell, calculated from fluorescence by eq. 1
Procedure: The current study was designed to investigate the pharmacological potential of CBD on calcium uptake in U87MG glioma cells by a method using a single-cell microfluidic approach.
The glass chip was fabricated through the standard micromachining processes at Canadian Microelectronic Corporation (CMC) by a process that includes standard chip cleaning, thin film deposition, photolithography, photoresist development, hydrofluoric acid wet etching, reservoir forming, and chip bonding, as previously reported (Li et al. 2005). The chip design is shown in FIG. 9, consisting of three reservoirs, three channels and one chamber containing the cell retention structure to isolate the single cell. Reservoir 1 was used for cell introduction and washing, reservoir 2 was used for reagent delivery, and reservoir 3 was a waste reservoir. The channel was 40 μm deep, while the reservoirs were 600 μm deep and 2.5 mm in diameter.
A fluorescent calcium probe, Fluo-4 AM ester (50 μg, special packaging, Molecular Probes, Eugene, Oreg.) was first dissolved in 50 μL of dimethyl sulfoxide (DMSO, 99.9%, Sigma-Aldrich, St. Louis, Mo.) to make a stock solution of 1 μg/μL. Before use, it was freshly diluted in Hanks' balanced salt solution (HBSS, Invitrogen Corp., Grand Island, N.Y.) to make a 5.0 μM working solution. Due to light sensitivity of Fluo-4 AM, it must be stored in the dark at −20° C. Cannabidiol (CBD) was purchased from Cerilliant Corporation (Round Rock, Tex.) as drug enforcement agency-exempt solution, i.e. 1 mg/mL solution in methanol (MeOH). Trypan blue solutions (4%) were purchased from Sigma-Aldrich (St. Louis, Mo.). RPMI 1640 medium solution, trypsin-ethylenediaminetetraacetic acid (Trypsin-EDTA) (0.025%), penicillin-streptomycin and fetal bovine serum (FBS) were obtained from Life Technologies (Grand Island, N.Y.). lonomycin (Calcium salt, Sigma Chemical Co.) was used to saturate the Ca^2+-Fluo-4 fluorescence within the cells. Ionomycin was dissolved in DMSO to make the stock solution which was finally diluted in HBSS containing 1 mM CaCl2 to make working solutions. The glioma cells (U-87 MG) were obtained from ATCC (Manassas, Va.). The cells were maintained in the RPMI medium with 10% fetal bovine serum and 1% penicillin in a 5% CO2 atmosphere at 37° C. and were passaged twice a week.
An optical imaging and fluorescent measurement system was used, as previously described (Li et al., 2009). Briefly, an inverted microscope (TE300, Nikon, Mississauga, ON, Canada) was connected to a video camera (JVC, TK-C3180). A TV set was used for optical observation (FIG. 2). By using a dichroic filter (620 nm), only red light entered the video camera for cell imaging without interfering with the fluorescent measurement. The green fluorescent emission (535 nm) was achieved under the Xenon arc lamp excitation (480 nm) selected by the microphotometer system (PTI) through a detection aperture. The chip was translated back and forth manually so the cellular fluorescence or background signal could be measured.
Before running any experiment, the microfluidic chip was cleaned by soap solution (2 times), rinsed with deionized water (3 to 5 times), and sterilized with 75% ethanol (1 time). After the cleaning step, […] of a cell suspension was introduced into the cell inlet from reservoir 1, the cells flowed from the left to right across the cell retention structure. By adjusting the liquid levels of the right […] (waste) and the left reservoir 1 (cell inlet), a desired U-87 MG cell was slowed down near the entrance of the cell retention structure. As the glioma cell is adherent, it readily becomes stationary to maintain its location in the retention structure. The glioma cell was allowed to settle for about 15 minutes, during which it was attached to the glass chip surface before the fluorescence measurement started.

[1] = read-out: Kd (dissociation constant of the dye); cited from earlier work
[2] = system: U87 human glioma cell line; settings: cited from earlier work
[3] = system: U373 human glioma cell line; settings: cited from earlier work
U87 human glioma cells [4] = settings: in vitro, dose-dependently, 0.01 up to 9 μM; cited from earlier work
U87 human glioma cells [5] = settings: mouse, in vivo; cited from earlier work

C=CC(=C)CCC=C(C)C [myrcene]
cell calcium response (U-87 MG glioma cell; 10 μM, data not shown): not detectable | cell calcium response (FIG. 11) (U-87 MG glioma cell; 20 μM, alone): a little cell calcium response

Cc1ccc(N(CC(=O)O)CC(=O)O)c(OCCOc2cc(-c3c4cc(F)c(=O)cc-4oc4cc(O)c(F)cc34)ccc2N(CC(=O)O)CC(=O)O)c1 [Fluo-4]
Kd [1]: 350 nM

C=C(C)[C@@H]1CCC(C)=C[C@H]1c1c(O)cc(CCCCC)cc1O [CBD, cannabidiol]
change of [Ca^2+]i (FIG. 10) (U-87 MG glioma cell; 9.5 μM CBD): increased slightly | change of [Ca^2+]i (FIG. 10) (U-87 MG glioma cell; 19 μM CBD compared to 9.5 μM): significantly increased | concentration dependence of intracellular [Ca^2+]i increase (U-87 MG glioma cell; CBD 9.5 and 19 μM): concentration-dependent manner | cell viability by trypan blue at end of experiment (U-87 MG glioma cell; after 9.5 and 19 μM CBD and ionomycin): not dead | [Ca^2+]i (U-87 MG glioma cell; after 9.5 μM CBD): 47.9 nM | [Ca^2+]i (U-87 MG glioma cell; after 19 μM CBD): 913 nM | mitochondrial oxidative metabolism ([2]; CBD exposure to cells): reduced | antiproliferative effect ([2]; U87): antiproliferative effects | antiproliferative effect [3]: antiproliferative effects | translocation of U87 human glioma cells (U87 human glioma cells [4]): inhibited | viability of U87 human glioma cells in mice (U87 human glioma cells [5]): prohibited

C[C@H](CCC(=O)O)C[C@H](C)C[C@H](C)C(=O)/C=C(\O)[C@H](C)C[C@H](C)C/C=C/[C@@H](C)[C@@H](O)[C@@H](C)[C@@H](O)C[C@@H]1CC[C@@](C)([C@H]2CC[C@@](C)([C@@H](C)O)O2)O1 [ionomycin, Ionomycin]
fluorescence response after ionomycin (Fmax) (U-87 MG glioma cell; 10 μM ionomycin, at ~6000 s): obvious fluorescence peak
